# Reference: article PMC12040169 (PLOS Biology, 2025)
# Test: in vitro
# Details: human, hela cells, % viability
row,SMILES,"viability at 28.5 h, 10 µM [%]"
1,CC(CNC(=O)C1CCCC1)N1CCc2ccccc2C1 (stereo not drawn) [CBK304555],94.2
2,O=C(Cn1ccccc1=O)Nc1ccc(OCC(F)(F)F)nc1 [CBK304556],88.9
3,CC(=O)Nc1cccc(CNC(=O)c2cccnc2OCC(F)(F)F)c1 [CBK304557],87.2
4,CC(=O)Nc1ccc(CNC(=O)c2cccnc2O)cc1 [CBK304559],107
5,O=C1CCC(C(=O)N2CCN(S(=O)(=O)c3ccccc3Cl)CC2)N1 (stereo not drawn) [CBK304561],77.6
6,Cc1ccc(C(=O)Nc2ncn(CC(=O)N3CCCCCC3)n2)cc1 [CBK304569],106
7,Cc1sc2ncnc(N3CCCC3Cn3cccn3)c2c1C (stereo not drawn) [CBK304570],90.9
8,CN(C(=O)CN1CCCC1Cn1cccn1)C1(C#N)CCCCC1 (stereo not drawn) [CBK304571],88.6
9,CCOC(=O)c1c(NC(=O)c2cccnc2)sc2c1CCCC2 [CBK304574],101
10,CCOC(=O)c1c(NC(=O)CNCc2cccnc2)sc2c1CCCC2 [CBK304577],94
11,N#Cc1ccc(OCC(=O)Nc2ncccn2)cc1 [CBK304578],85.4
12,Cc1cc(NC(=O)NC2CCOc3ccccc32)no1 (stereo not drawn) [CBK304581],93.8
13,Cc1ccccc1CN(C)C(C)C(=O)Nc1ccc(S(N)(=O)=O)cc1 (stereo not drawn) [CBK304589],91.7
14,CS(=O)(=O)NC1CCN(c2nc(C(F)(F)F)nc3ccsc23)CC1 [CBK304592],109
15,CCS(=O)(=O)NC1CCN(c2nc(C(F)(F)F)nc3ccsc23)CC1 [CBK304593],108
16,CS(=O)(=O)N1CCN(c2nc(C(F)(F)F)nc3ccsc23)CC1 [CBK304594],91.1
17,Cc1ccccc1C(=O)N1CCN(Cc2cc(=O)n3ccsc3n2)CC1 [CBK304595],90.9
18,Nc1nnc(SCCC(=O)N2CCN(c3ccc(F)cc3)CC2)s1 [CBK304597],84.7
19,CC(=O)Nc1cccc(-n2nnnc2SCc2noc(C)n2)c1 [CBK304599],90.9
20,CC(C)(C)OC(=O)N1CCC(NCc2ccccn2)CC1 [CBK304603],97.1
21,CCc1ccc(C(O)CNC2CCN(C3CCCCC3)CC2)cc1 (stereo not drawn) [CBK304604],88.2
22,COc1ccc(CC(=O)NC(c2nnc3ccccn23)C(C)C)cc1 (stereo not drawn) [CBK304607],89.4
23,OCCn1ncc2c(NCc3nncn3-c3ccccc3)ncnc21 [CBK304608],98.5

row,SMILES,"viability at 28.5 h, 10 µM [%]"
1,Cc1ccc(CN(Cc2ccco2)CC(O)COCc2ccco2)s1 (stereo not drawn) [CBK304610],96.7
2,Cn1cc(C2CCCCN2C(=O)c2cccc(C#N)c2)cn1 (stereo not drawn) [CBK304611],87.9
3,Cc1cnc2c(C(=O)N3CCCC3c3ccccn3)cnn2c1 (stereo not drawn) [CBK304612],91.8
4,COc1ccc(CC(=O)NCCc2nnc3ccccn23)cc1 [CBK304613],74.7
5,COc1ccc2c(c1)c(C(=O)NCCn1nc(C)cc1C)c(C)n2C [CBK304615],78
6,COC(=O)c1cc(S(=O)(=O)NC2CCCc3ccccc32)cn1C (stereo not drawn) [CBK304616],98.4
7,Cc1cccn2cc(CCNC(=O)N[C@H](C)C(=O)N(C)C)nc12 [CBK304617],110
8,CN(CC(=O)Nc1sc2c(c1C#N)CCCC2)Cc1cnn(C)c1 [CBK304618],92.8
9,CCOC(=O)N1CCN(S(=O)(=O)c2ccc3c(c2)n(C)c(=O)n3C)CC1 [CBK304620],86.8
10,CN(CC(=O)Nc1sc2c(c1C#N)CCCCC2)Cc1cnn(C)c1 [CBK304621],94.3
11,COc1ccc2cc(C(=O)N3CCc4[nH]c(=O)c(C#N)cc4C3)[nH]c2c1 [CBK304622],87.8
12,CC1CCc2c(sc(NC(=O)c3cccs3)c2C#N)C1 (stereo not drawn) [CBK304625],101
13,COc1ccc(CNC(=O)C2CCCN(S(=O)(=O)c3cccs3)C2)cc1 (stereo not drawn) [CBK304628],95.8
14,CC(=O)Nc1cccc(C(=O)N2CCOC(CCc3ccccc3)C2)c1 (stereo not drawn) [CBK304629],88.7
15,O=c1cc(N2CCCC2)cnn1Cc1cscn1 [CBK304635],84.1
16,COc1ccc(CNC(=O)c2cc(S(=O)(=O)N3CCCC3)cn2C)cc1 [CBK304637],95.2
17,CC(C)n1cnnc1CN(C)C(=O)CCc1nc2ccccc2s1 [CBK304638],97
18,COc1cccc(C(=O)NCCC(=O)N2CCOCC2)c1 [CBK304639],104
19,O=C(Cn1nc2n(c1=O)CCCCC2)NCc1ccccc1Cl [CBK304642],86.6
20,O=C(CCCn1cccn1)N1CCOC(c2ccc(Cl)cc2)C1 (stereo not drawn) [CBK304643],79.1
21,Cc1nn(C)c(C)c1C(=O)Nc1sc2c(c1C#N)CCC(C)C2 (stereo not drawn) [CBK304645],54.9
22,Cc1ccc(C)c(NC(=O)CCc2c(C)[nH]c3ncnn3c2=O)c1 [CBK304646],94.5
23,O=C(Cn1nc2n(c1=O)CCCC2)NCc1ccccc1Cl [CBK304647],104

row,SMILES,"viability at 28.5 h, 10 µM [%]"
1,CC(=O)OC1CCN(C(=O)c2cccc(C#N)c2)CC1 [CBK304648],93.3
2,CCCN(CCC)C(=O)Cn1cnc2ccc(Cl)cc2c1=O [CBK304651],78.2
3,CC(=O)c1cccc(NC(=O)Cn2nc(C)ccc2=O)c1 [CBK304653],101
4,Cn1c(=O)c2c(ncn2CC(=O)NCCOc2ccccc2)n(C)c1=O [CBK304654],95.5
5,Cn1ccnc1C(O)C1CCN(C(=O)NCCc2cccc(F)c2)CC1 (stereo not drawn) [CBK304657],80.5
6,CNS(=O)(=O)CCNC(=O)N1CCCN(Cc2ccc(F)cc2)CC1 [CBK304658],88.8
7,Cc1nn(CC(=O)NCC(c2cccnc2)N2CCOCC2)c(C)c1Cl (stereo not drawn) [CBK304659],118
8,O=C(NCCCn1ccnn1)c1cccc(S(=O)(=O)N2CCCCC2)c1 [CBK304660],104
9,COc1cccc(OCC(=O)NCC(c2cccs2)N2CCOCC2)c1 (stereo not drawn) [CBK304664],91.6
10,Cc1ocnc1C(=O)NCC1CCN(c2ccccc2F)C1 (stereo not drawn) [CBK304671],92.6
11,Cc1ccc(C)c(C(C)NC(=O)C2CCCN(S(C)(=O)=O)C2)c1 (stereo not drawn) [CBK304672],96.6
12,Cc1cc(C)c(CNC(=O)C2CC(=O)N(Cc3ccccn3)C2)cn1 (stereo not drawn) [CBK304673],89.8
13,COc1ccc(CCC(=O)NCC(c2cccs2)N2CCOCC2)cc1 (stereo not drawn) [CBK304674],107
14,O=C(NCCCn1ccnc1)c1cccc(S(=O)(=O)N2CCCCC2)c1 [CBK304687],111
15,CCOC(=O)N1CCC(NS(=O)(=O)c2cc(C(=O)OC)n(C)c2)CC1 [CBK304688],92.3
16,CCOc1cc(NC2CCN(C(=O)Cc3cc(C)on3)CC2)ncn1 [CBK304689],113
17,O=C(CCc1ccncc1)N1CCOC(c2ccc(F)cc2F)C1 (stereo not drawn) [CBK304692],98.3
18,CCCC(=O)N(C)C(CO)c1cc(OC)ccc1Br (stereo not drawn) [CBK304694],95.4
19,Cc1nsc(NCc2ccccc2CN2CCC(O)CC2)c1C#N [CBK304695],95.1
20,CC(C)Cc1nsc(NC2CCCN(c3ccn(C)n3)C2=O)n1 (stereo not drawn) [CBK304696],91.2
21,CNCC1CCN(C(=O)c2ccc(Oc3cccnc3)cc2)C1 (stereo not drawn) [CBK304697],91.5
22,Cc1c(C(=O)N(C)C2CCNC2)nnn1-c1ccc2ncccc2c1 (stereo not drawn) [CBK304698],94.5
23,COc1ccnc(N2CCC(Oc3cccnc3N(C)C)C2)n1 (stereo not drawn) [CBK304699],92.4

row,SMILES,"viability at 28.5 h, 10 µM [%]"
1,COCCc1nsc(N2CCC(N(C)c3cccnn3)CC2)n1 [CBK304701],94.1
2,Cc1ccc(CS(=O)(=O)N2CCN(CCO)C(C)C2)c(F)c1 (stereo not drawn) [CBK304702],105
3,Cc1csc(NC(=O)CN2CCOC(c3ccc(F)cc3)C2)n1 (stereo not drawn) [CBK304703],116
4,Cc1nonc1-c1csc(CC(C)n2cc(Cl)cn2)n1 (stereo not drawn) [CBK304704],92.2
5,Cc1nc(S(=O)(=O)Cc2c(F)cccc2Cl)n(CC2CCCO2)c1C (stereo not drawn) [CBK304706],87.9
6,CC(Cc1nc(C2CC2)cs1)n1cc(Cl)cn1 (stereo not drawn) [CBK304707],90.1
7,Cc1nnnn1-c1cc(NC(=O)N(C)C(C)C)ccc1F [CBK304708],93.2
8,Cc1nc(CN2CCN(c3cccc(C(F)(F)F)n3)CC2)cs1 [CBK304709],93.9
9,CC(C)(C)OC(=O)N1CCCCC1(C)c1nnc(-c2cccnc2)o1 (stereo not drawn) [CBK304714],90.2
10,CC(Cc1nc(C2(Cl)CC2)cs1)n1cc(Cl)cn1 (stereo not drawn) [CBK304715],85.5
11,COCc1nc2n(n1)CC(NC(C)C(C)OCc1ccccc1)CC2 (stereo not drawn) [CBK304724],95.8
12,CCc1ccc2c(c1)C(CCNC(=O)c1ncoc1C(F)(F)F)C(=O)N2 (stereo not drawn) [CBK304725],99.4
13,Cc1nn(C)c(S(=O)(=O)N2CCOCC2c2cccc(F)c2)c1C(F)F (stereo not drawn) [CBK304729],86.3
14,CCc1ccc(C(O)CNC2CCN(Cc3cscn3)CC2)cc1 (stereo not drawn) [CBK304733],108
15,Cc1c(NC2CCN(c3ccc(C#N)cc3)C2=O)cnn1C1CCCC1 (stereo not drawn) [CBK304735],113
16,CCC(NC1CCc2nc(COC)nn2C1)C1CCC1 (stereo not drawn) [CBK304739],87.8
17,Cc1ccc2[nH]c(CNC(=O)c3cn[nH]c3C3CCCCN3)nc2c1 (stereo not drawn) [CBK304741],100
18,CN(Cc1ccc(Cl)c(F)c1)C(=O)c1cn[nH]c1C1CCCCN1 (stereo not drawn) [CBK304742],103
19,NC(=O)c1cn[nH]c1C1CCCCN1Cc1cccc2c1CCOC2 (stereo not drawn) [CBK304745],83.1
20,N#Cc1cc(Cl)ccc1CN1CCCCC1c1[nH]ncc1C(N)=O (stereo not drawn) [CBK304746],88.5
21,Cc1noc(C2(O)CCN(Cc3cccc(Cl)c3F)C2)n1 (stereo not drawn) [CBK304748],99.3
22,CCn1nncc1CNC1CCc2[nH]c3ccc(C)cc3c2C1 (stereo not drawn) [CBK304749],98.3
23,CCOc1cccc(CN2CCCCC2c2[nH]ncc2C(N)=O)n1 (stereo not drawn) [CBK304750],98.9

# Same assay, conditions: human, hela cells, % viability, bulk resorufin, single well
row,SMILES,"viability at 28.5 h, 10 µM [%]"
1,O=C(Cn1c(=O)oc2cc(Cl)ccc21)N1CCC2(CC1)OCCO2 [CBK304652],97
